Data reported in patent publication US5968838A, “Antiarrhythmic peptide from venom of spider Grammostola spatulata” (priority 1998, dated 1999).
Read-outs that look alike come from different tables or passages of the source. Ends that are not written are not given here.

Key:
Type in all cases: cell-based, Rat
L-type Ca^2+ channels = assay: Depolarization (high K+) induced Ca2+ increase in GH3 cells, three consecutive depolarizations
Description: After loading with Fura-2, the cover slip containing the GH3 cells was mounted in a custom made holder and placed in a quartz cuvette at an angle of 20 degrees to the excitation beam. The cells on the cover slip were exposed to various test solutions and the changes in calcium ion concentration were measured according to the following method. Fluorescence emission was collected from a group of about 10^5 cells located in the excitation path. Excitation beams at 340 nm (Ex340nm) and 380 nm (Ex380 nm) were used and the fluorescence intensities at 510 nm (Em5 10 nm) were monitored. […] Fluorescence emission data was collected for times up to 600 to 1200 seconds depending on the solution added to the cells. […]

[1] = tested on: stretch activated channel; assay: Fura-2 fluorescence ratio measurement of stretch activated channel activity: hypotonic cell swelling induced calcium increase (HICI) in GH3 cells
Description: (§1) Rat pituitary cell line GH3 was provided by Dr. S. Simasko, Department of VCAPP, Washington State University, Pullman, Wash., 99164 and the American Type Culture Collection, Rockville, Md. The cells were cultured in standard medium containing 82.5% Ham's F-10 nutrients (Gibco, Gaithersburg, Md.), 15 % heat inhibited horse serum (Gibco) and 2.5% fetal bovine serum (Gibco) at 37C in 10% CO2. Cells were fed twice per week and subcultured once per week. For Fura-2 fluorescence measurements, cells were plated on poly-L-lysine coated glass cover slips at 95% confluency, cultured under normal conditions and used between 3 to 6 days after plating.
Ca^2+ was measured on an SLM AB-2 fluorescence spectrometer (SLM Instruments, Rochester, N.Y.). Cells plated on poly-L-lysine coated glass cover slips were loaded with Fura-2 in a loading solution containing 2 micromolar Fura-2/AM (disclosed in Grynkiewicz, G. et al., (1985) Journal of Biological Chemistry 260: 3440-3450) according to the following procedure. Cells were washed twice in phosphate buffered saline (PBS) solution. Cells were then incubated in the loading solution for 30 minutes at 25C. The cells were rinsed twice with PBS and incubated in the culture medium for 30 minutes at 25C. Experiments were performed within 1 hour after loading. […]
After loading, the plated cells were exposed to various hypotonic and isotonic solutions and test solutions containing spider venom. Changes in the calcium ion concentration were measured according to the following method.
After loading with Fura-2, the cover slip containing the GH3 cells was mounted in a custom made holder and placed in a quartz cuvette at an angle of 20 degrees to the excitation beam. The cells on the cover slip were exposed to various test solutions and the changes in calcium ion concentration were measured according to the following method. Fluorescence emission was collected from a group of about 10^5 cells located in the excitation path. Excitation beams at 340 nm (Ex340nm) and 380 nm (Ex380 nm) were used and the fluorescence intensities at 510 nm (Em5 10 nm) were monitored. […] Fluorescence emission data was collected for times up to 600 to 1200 seconds depending on the solution added to the cells.
An increase in the Ca^2+ concentration caused an increase in the fluorescence at Em510 nm/Ex340nm and at the same time, a decrease at Em510/Ex380nm. The ratio of the two (R) was used to calculate the Ca^2+ concentration using the following formula: [formula] where kd is the equilibrium constant; Rmax is the ratio and Fb is the fluorescence intensity at Ex380nm when Fura-2 is saturated with Ca^2+, Rmin is the ratio and Ff is the fluorescence intensity at Ex380nm when Fura-2 is not bound by Ca^2+. […]

GH3 cells = assay: Cell Ca2+ of GH3 cells in isotonic saline (Fura-2); conditions: 10 μM peptide
Description: as §1
Ca^2+ was measured on an SLM AB-2 fluorescence spectrometer (SLM Instruments, Rochester, N.Y.). […]
After loading with Fura-2, the cover slip containing the GH3 cells was mounted in a custom made holder and placed in a quartz cuvette at an angle of 20 degrees to the excitation beam. The cells on the cover slip were exposed to various test solutions and the changes in calcium ion concentration were measured according to the following method. Fluorescence emission was collected from a group of about 10^5 cells located in the excitation path. Excitation beams at 340 nm (Ex340nm) and 380 nm (Ex380 nm) were used and the fluorescence intensities at 510 nm (Em5 10 nm) were monitored. […]

Q: Which “block of depolarization induced Ca2+ increase (comparators, stated by contrast)” value (L-type Ca^2+ channels; GH3 cells, concentration not given) does the source give for `[Gd+3]` [Gd^3+] here?
A: Its value is “block”.

Q: Which “block of depolarization induced Ca2+ increase (comparators, stated by contrast)” value (L-type Ca^2+ channels) does the source give for `COC(=O)C1=C(C)NC(C)=C(C(=O)OC)C1c1ccccc1[N+](=O)[O-]` [nifedipine] here?
A: The value was “block”.

Q: “YCQKWMWTCDEERKCCEGLVCRLWCKKKIEW (cysteine pairing not given here) [α Mechanotoxin]” was tested. Which association rate ([1]; block of HICI in GH3 cells) did it give?
A: The association rate was “approximately 10^3 m^-1 s^-1”.

Q: What about the dissociation rate ([1]; block of HICI in GH3 cells) of the same compound?
A: Its dissociation rate is ~0.01 s⁻¹.

Q: And the Kd ([1]; block of HICI in GH3 cells, read-out: equilibrium constant)?
A: Its Kd is ~10 µM.

Q: What about the “block of hypotonic cell swelling induced calcium increase (HICI)” value ([1]; purified peptide, GH3 cells) of the same compound?
A: The value was “reversibly blocks”.

Q: What about the “effect on cell Ca2+ in isotonic saline” value (GH3 cells) of the same compound?
A: Its value is “decreases cell Ca^2+ to levels seen in the absence of extracellular Ca^2+”.
